Entries after “also recorded” stand apart in the source; their conditions may differ. Counter-ions that a name gives are not always drawn.
Legend:
[1] = test system: male BALB/c mice with sciatic nerve transaction; assay: Von Frey test, hindpaw withdrawal threshold in sciatic nerve transaction (SNT) neuropathic pain model; type: in vivo
Description: (§1) Lyophilized andrographolide powder is dissolved in DMSO and subsequently diluted to 2.86 mM (1 mg/mL) in 90% normal saline and 10% DMSO for storage. The mixture is injected into the peritoneum (body cavity) of each animal (intraperitoneal injection) based on 5 mg/kg animal weight, for example, a 30 g mouse is injected with 150 μL of saline containing 0.15 mg of andrographolide. NSAID drugs (Diclofenac sodium salt) may be purchased from Sigma (D6899), and diluted to 2.86 mM (0.91 mg/mL) in 90% saline and 10% DMSO for storage. The NSAID drugs is administered via intraperitoneal injection based on […] animal weight, for example, a 30 g mouse is injected with 165 μL of saline containing 0.15 mg of NSAID drugs. The number of molecules administered is less in andrographolide treated mouse than in NSAID drugs treated […]. These drugs are administered daily after surgery.
(§2) An operation for inducing the sciatic nerve transaction of BALB/c mice is processing as follows. After isoflurane anesthesia is applied to male BALB/c mice, which have about 8 weeks of age and have a weight of approximately 30 g, the skin of the right thigh is slit to expose the muscle. Then a blunt instrument is used to spread open the biceps femoris to expose the sciatic nerve and its three nerve branches, which are the sural nerve, common peroneal nerve and tibial nerve. Then a sterilized no. 4-0 chromium wire is used to tie the sciatic nerve, and approximately 2-4 mm of the ends of the common peroneal nerve and the tibial nerve are cut at a position near the tying position. Care is taken to avoid touching and stretching the sural nerve. The muscle and skin are closed in two separate layers. For sham surgery, the sciatic nerve is exposed as described above but no contact is made with the nerve. In this embodiment, the nerve is tied to a level such that there is slight sheathing of the nerve in order to avoid affecting the blood circulation in the area. The mice's behavior is observed after several days of rest.
(§3) The experiment is separated into the following groups that receive different treatments. In the normal group, no surgery is carried out and no andrographolide or NSAID drugs are administered to mice. In the pain group (OP-saline), saline is given to mice daily after surgery. In the control group (Op-NSAIDs), Diclofenac sodium salt is administered to mice daily after surgery. In the experimental group (Op-AP), an andrographolide compound is administered to mice daily after surgery. The means of administration is by intraperitoneal injection. The concentration of drugs for both the control group and the experimental group is 5 mg/kg animal weight, and the average animal weight is 30 g. For the model that uses an in vivo sciatic nerve transaction to simulate pathological pain, the mice behavior is tested on 3, 7, 14 days after surgery. The von Frey hair test is used to determinate the withdrawal threshold of the pathological pain.
Mechanical allodynia threshold at the lateral plantar surface of the hindpaw is assessed before nerve injury (as basal pain threshold) and then testing began on day 3 after surgery and continued for 7 and 14 days after surgery. Mechanical sensitivity is determined by measuring the withdrawal thresholds and reaction ratio to von Frey hairs (Stoelting, Wood Dale, Ill.) using the up and- down method (Dixon 1980) as described by Chaplan (Chaplan, Bach et al. 1994). Animals were placed in a plastic cage with a wire net floor and were allowed to habituate 10-15 min before testing began. Animals were also habituated over a period of 2-3 consecutive days by recording a series of baseline measurements. The filaments were applied in ascending order, each 5 times at an interval of 2-3 s to the plantar surface of the hindpaw (Bourquin, Suveges et al. 2006) and the smallest filament eliciting a foot withdrawal response is considered the threshold stimulus. […]

[2] = test system: male BALB/c mice with sciatic nerve transaction; assay: Von Frey test, withdrawal rate (reaction types II-IV) with 0.02 g and 0.07 g fibers in SNT neuropathic pain model; type: in vivo; conditions: 5 mg/kg i.p. daily; for withdrawal rate, von Frey fiber of 0.02 g, right hindpaw: 3, 7 and 14 days after surgery
Description: as §1, §2, §3
Mechanical allodynia threshold at the lateral plantar surface of the hindpaw is assessed before nerve injury (as basal pain threshold) and then testing began on day 3 after surgery and continued for 7 and 14 days after surgery. Mechanical sensitivity is determined by measuring the withdrawal thresholds and reaction ratio to von Frey hairs (Stoelting, Wood Dale, Ill.) using the up and- down method (Dixon 1980) as described by Chaplan (Chaplan, Bach et al. 1994). […]

[3] = test system: glial fibrillary acidic protein (GFAP); assay: GFAP immunoreactivity in spinal cord astrocytes (L4-L6), immunohistochemical staining and quantification; type: in vivo, mice; conditions: 5 mg/kg i.p. daily; 7 days after surgery; compared to OP-saline group
Description: The following procedure is to ascertain the activity of astrocytic glial cells of the spinal cord. The mice are deeply anaesthetized with sevoflurane and perfused transcardially with saline followed by 0.1 M phosphate buffer solution containing 4% paraformaldehyde. The L4-L6 segment of spinal cord and left and right sciatic nerves are dissected out and post-fixed in a 4% parformaldehye solution at 4° C. overnight, and transferred to a series of solution of phosphate-buffered saline (PBS), graded ethanol/PBS, xylyne, graded xylyne/wax mixture, and finally embedded in wax. A rotary slicer for tissues is used to slice the sample to a transverse section with a thickness of 3 um, and warm water is used to spread and attach to the glass slice.
The wax sections are dewaxed in a series of xylene, graded xylene/ethanol mixture, or graded ethanol mixture, and finally incubation in PBS. […]
The immunoreactivity in each group is analyzed, and the intensity of chromogen staining or fluorescence is determined by photo form 4-5 independent animals. The image of the photo is analyzed using the same settings for quantitative comparison. All measured pixels in a specific area are analyzed by the ImageJ software on 0 (black) to 255 (white) scales. The total number of pixels having a value less than 50 in the photo is calculated and used to estimate the value of immunoreactivity in the area of interest.

Compound | right hindpaw withdrawal threshold ([1]; 5 mg/kg i.p. daily after surgery, 3, 7 and 14 days after surgery, compared to OP-saline group) | left hindpaw withdrawal threshold (contralateral, mirror pain) ([1]; 5 mg/kg i.p. daily, 3, 7 and 14 days after surgery, compared to saline group and NSAIDs group) | right hindpaw withdrawal threshold, effect compared with NSAID drugs ([1]; 5 mg/kg i.p. daily, 3 and 14 days after surgery, vs Op-NSAIDs (Diclofenac sodium salt)) | degree of relief from mechanical allodynia compared with same dose of NSAID drugs ([1]; 5 mg/kg i.p. daily, overall summary) | withdrawal rate, von Frey fiber of 0.02 g, right hindpaw ([2]; compared with Op-NSAID group) | withdrawal rate, von Frey fiber of 0.02 g, right hindpaw ([2]; compared with Op-saline group) | withdrawal rate, fiber of 0.07 g, difference to Op-NSAID group ([2]; 7-14 days after surgery) | withdrawal rate, fiber of 0.07 g, difference to Op-NSAID group ([2]; 3 days after surgery) | withdrawal rate, fiber of 0.07 g ([2]; compared to Op-saline group) | GFAP immunoreactivity of the astrocytes, L4-L6 spinal area [3] | left hindpaw withdrawal threshold (contralateral, mirror pain), persistence of higher threshold ([1]; 5 mg/kg i.p. daily, 7-14 days post-operation, compared to saline group) | left hindpaw withdrawal threshold (contralateral, mirror pain) ([1]; 5 mg/kg i.p. daily, 3 days after surgery, compared to saline group)
C=C1CC[C@@H]2[C@](C)(CO)[C@H](O)CC[C@@]2(C)[C@@H]1C/C=C1/C(=O)OC[C@H]1O [andrographolide] | significantly increased; also recorded: significant increase | significantly increased | more significant effect | better | very significant lower | very significant low | significant | not significant | reduced pain sensation | reduced trend |  | 
O=C(O)Cc1ccccc1Nc1c(Cl)cccc1Cl [NSAIDS, Diclofenac sodium salt, reference compound] |  |  |  |  |  |  |  |  |  |  | does not sustain | higher (although not significant)
